From patent EP4255430B1, “8-HYDROX[…] PROTEASE INHIBITORS FOR USE IN THE PREVENTION AND/OR TREATMENT OF A CORONA VIRUS DISEASE” (Univerza v Ljubljani, priority 2020, dated 2022)

Test system: SARS-CoV-2
Assay: High Content Assay: antiviral activity against SARS-CoV-2 in infected Huh7-hACE2 cells (Spike immunofluorescence, infection ratio)
Settings: for EC50 / EC90: Huh7-hACE2 cells, 0.1 MOI, 20 h; for % of inhibition reached (maximal), based on infection ratio values: within tested concentration range, normalized to 50 µM hydroxychloroquine = 100%; for activity against SARS-CoV-2 in Huh7-hACE2 cells (comparison between inhibitors): qualitative ranking; for EC90: read-out: EC90, the effective concentration capable to inhibit 90% of infection, follows the pre-treated values
[1] = treatment condition not restated in the sentence (follows the pre-treated values)
[2] = pre-treated conditions (compounds added 3 hours prior infection)

Row | Compound | EC50 [1] | % of inhibition reached (maximal), based on infection ratio values | activity against SARS-CoV-2 in Huh7-hACE2 cells (comparison between inhibitors) | EC90 | EC50 [2]
1 | CC(C)C[C@H](NC(=O)[C@H]1O[C@@H]1C(=O)O)C(=O)NCCCCN=C(N)N (relative stereo) [Compound E64] | higher concentrations | < 100% | – | – | –
2 | CN(C)C(=O)[C@H](Cc1ccccc1)NC(=O)C1OC1C(=O)NCCc1ccccn1 (stereo in doubt) [CLIK 148, N-{L-3-trans-[2-(pyridin-2-yl)ethylcarbamoyl]-oxirane-2-carbonyl}-L-Phe dimethylamide] | higher concentrations | < 100% | – | – | –
3 | CC1CCN(Cc2cc([N+](=O)[O-])c3cccnc3c2O)CC1 [Compound 3, 7-[(4-methylpiperidin-1yl)methyl]-5-nitroquinolin-8-ol] | – | 100% | stronger effect than CLIK 148, but weaker than Nitroxoline and Compound 17 | 10 µM | –
4 | N#CCNCc1cc([N+](=O)[O-])c2cccnc2c1O [Compound 17, 2-{[(8-hydroxy-5-nitroquinoline-7-yl)methyl]amino}-acetonitrile] | – | 100% | highest activity | 3.3 µM | 1.9 µM
5 | CCOC(=O)[C@H]1O[C@@H]1C(=O)N[C@@H](CC(C)C)C(=O)NCCC(C)C [Compound E64d, (2S,3S)-trans-Epoxysuccinyl-L-leucylamido-3-methylbutane ethyl ester] | – | < 100% | – | – | –
6 | O=[N+]([O-])c1ccc(O)c2ncccc12 [Nitroxoline, 5-nitro-8-hydroxyquinoline] | – | 100% | highest activity | 7.9 µM | 1.9 µM
